According to publication PMC9048505 (RSC Advances, 2020):

Tests used:
HCT-116 = test: In vitro anti-proliferative activity, MTT assay, HCT-116; assay type: cell-based, human; details: for IC50: Homo sapiens, HCT-116, MTT, 24 h treatment, mean ± S.D. of three separate experiments
Experimental: (§1) The cells were obtained from ATCC (American Type Culture Collection) via the Holding company for biological products and vaccines (VACSERA) (Cairo, Egypt). […] After incubation period, the cell lines were treated with different concentration of the synthesized compounds and incubated for 24 h. After treatment by 24 h, 20 μL of MTT solution (5 mg mL^−1) was added and incubated for 4 h. Dimethyl sulfoxide (100 μL) was added into each well to dissolve the formed purple formazan. […] The relative cell viability in percentage was calculated as (A570 of treated samples/A570 of untreated sample) X 100.

HepG-2 = test: In vitro anti-proliferative activity, MTT assay, HepG-2; assay type: cell-based, human; details: for IC50: Homo sapiens, HepG2, MTT, 24 h treatment, mean ± S.D. of three separate experiments
Experimental: as §1

MCF-7 = test: In vitro anti-proliferative activity, MTT assay, MCF-7; assay type: cell-based, human; details: for IC50: Homo sapiens, MCF7, MTT, 24 h treatment, mean ± S.D. of three separate experiments
Experimental: as §1

purified bovine tubulin = molecular target: T1, purified bovine tubulin (Bos taurus, UniProt P81947+Q6B856); test: In vitro tubulin polymerization assay; assay type: biochemical; details: purified bovine tubulin 10 μM, 37 °C; read-out: IC50 Tubulin polymerization inhibition
T1 construct: purified bovine tubulin (10 μM); from tissue; host or cells: bovine
Experimental: The inhibition assay on microtubule polymerization was evaluated turbidimetrically using a fluorescent plate reader.[52]

T1 sequence (Q6B856 whole entry): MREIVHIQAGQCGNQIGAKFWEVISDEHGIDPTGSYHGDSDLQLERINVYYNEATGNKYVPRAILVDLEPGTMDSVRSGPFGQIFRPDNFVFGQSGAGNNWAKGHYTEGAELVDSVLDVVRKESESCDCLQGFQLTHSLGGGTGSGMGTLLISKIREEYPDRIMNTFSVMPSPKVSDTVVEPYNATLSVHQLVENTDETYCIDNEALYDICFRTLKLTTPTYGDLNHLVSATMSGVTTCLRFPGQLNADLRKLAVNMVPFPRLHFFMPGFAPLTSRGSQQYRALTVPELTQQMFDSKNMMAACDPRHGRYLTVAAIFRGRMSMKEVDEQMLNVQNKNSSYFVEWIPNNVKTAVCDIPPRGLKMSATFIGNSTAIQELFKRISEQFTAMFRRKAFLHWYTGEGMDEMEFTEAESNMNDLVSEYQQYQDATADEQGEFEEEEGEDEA
T1 sequence (P81947 whole entry): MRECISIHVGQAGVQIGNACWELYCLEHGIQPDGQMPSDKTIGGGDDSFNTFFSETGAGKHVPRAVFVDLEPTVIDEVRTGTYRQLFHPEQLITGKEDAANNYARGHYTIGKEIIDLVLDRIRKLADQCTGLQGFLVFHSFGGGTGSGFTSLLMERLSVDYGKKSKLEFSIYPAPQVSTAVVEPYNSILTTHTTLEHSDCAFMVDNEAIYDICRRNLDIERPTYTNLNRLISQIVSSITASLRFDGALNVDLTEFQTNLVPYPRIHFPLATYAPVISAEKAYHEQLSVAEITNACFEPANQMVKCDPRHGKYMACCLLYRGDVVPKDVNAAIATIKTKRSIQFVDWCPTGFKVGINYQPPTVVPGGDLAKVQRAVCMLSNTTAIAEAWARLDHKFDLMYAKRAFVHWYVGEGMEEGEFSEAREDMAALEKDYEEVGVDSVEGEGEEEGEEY

Structure (SMILES) | IC50 (HCT-116) [µM] | IC50 (HepG-2) [µM] | IC50 (MCF-7) [µM] | IC50 (purified bovine tubulin) [µM] | melting point [°C] | times as active as colchicine against HCT-116 (HCT-116; ratio of IC50 values) [times] | times as active as colchicine against HepG-2 (HepG-2; ratio of IC50 values) [times] | times as active as colchicine against MCF-7 (MCF-7; ratio of IC50 values) [times]
C/C(=N\NC(N)=S)c1ccc(C)cc1 [Compound 3a, (E)-2-(1-(p-Tolyl)ethylidene)hydrazine-1-carbothioamide] | > 50 | > 50 | > 50 | – | – | – | – | –
COc1ccc(/C(C)=N/NC(N)=S)cc1OC [Compound 3b, (E)-2-(1-(3,4-Dimethoxyphenyl)ethylidene)hydrazine-1-carbothioamide] | 17.3 ± 1.4 | 12.9 ± 0.4 | 22.4 ± 1 | 0.0445 ± 0.0023 | 205 to 207 | – | – | –
COc1ccc(/C=C2/N=C(N/N=C(\C)c3ccc(C)cc3)SC2=O)cc1 [Compound 4a, 4-((E)-4-Methoxybenzylidene)-2-(2-((E)-1-(p-tolyl)ethylidene)hydrazinyl) thiazol-5(4H)-one] | 45.6 ± 3.5 | 34 ± 30.9 | > 50 | – | 248 to 250 | – | – | –
C/C(=N\NC1=N/C(=C/c2ccc(Cl)cc2)C(=O)S1)c1ccc(C)cc1 [Compound 4b, 4-((E)-4-Chlorobenzylidene)-2-(2-((E)-1-(p-tolyl)ethylidene)hydrazinyl) thiazol-5(4H)-one] | 18.2 ± 1.3 | 11.14 ± 0.1 | 22.4 ± 1 | – | 266 to 268 | – | – | –
C/C(=N\NC1=N/C(=C/c2ccc(O)cc2)C(=O)S1)c1ccc(C)cc1 [Compound 4c, 4-((E)-4-Hydroxybenzylidene)-2-(2-((E)-1-(p-tolyl)ethylidene)hydrazinyl) thiazol-5(4H)-one] | 38.5 ± 2.5 | 35.2 ± 0.8 | 41.8 ± 1.2 | – | 272 to 274 | – | – | –
C/C(=N\NC1=N/C(=C/c2ccc(Cl)cc2Cl)C(=O)S1)c1ccc(C)cc1 [Compound 4d, 4-((E)-2,4-Dichlorobenzylidene)-2-(2-((E)-1-(p-tolyl)ethylidene)hydrazinyl) thiazol-5(4H)-one] | 10.6 ± 0.4 | 6.6 ± 0.1 | 14.8 ± 0.6 | 0.0197 ± 0.0008 | > 300 | – | – | –
COc1ccc(/C=C2/N=C(N/N=C(\C)c3ccc(C)cc3)SC2=O)cc1OC [Compound 4e, 4-((E)-3,4-Dimethoxybenzylidene)-2-(2-((E)-1-(p-tolyl)ethylidene)hydrazinyl) thiazol-5(4H)-one] | 13 ± 0.2 | 12.44 ± 0.1 | 18.2 ± 0.5 | 0.0474 ± 0.0018 | 254 to 256 | – | – | –
C/C(=N\NC1=N/C(=C/c2ccc(O)cc2O)C(=O)S1)c1ccc(C)cc1 [Compound 4f, 4-((E)-2,4-Dihydroxybenzylidene)-2-(2-((E)-1-(p-tolyl)ethylidene)hydrazinyl) thiazol-5(4H)-one] | 5.66 ± 0.1 | 2.89 ± 0.1 | 4.46 ± 0.1 | 0.00933 ± 0.0003 | – | 1.64 | 2.57 | 2.34
COc1ccc(/C=C2/N=C(N/N=C(\C)c3ccc(OC)c(OC)c3)SC2=O)cc1 [Compound 4g, 2-(2-((E)-1-(3,4-Dimethoxyphenyl)ethylidene)hydrazinyl)-4-((E)-4-methoxybenzylidene) thiazol-5(4H)-one] | 12.9 ± 0.6 | 8.68 ± 0.1 | 17.4 ± 0.5 | – | 240 to 242 | – | – | –
COc1ccc(/C(C)=N/NC2=N/C(=C/c3ccc(O)cc3)C(=O)S2)cc1OC [Compound 4h, 2-(2-((E)-1-(3,4-Dimethoxyphenyl)ethylidene)hydrazinyl)-4-((E)-4-hydroxybenzylidene)thiazol-5(4H)-one] | 41.8 ± 1.6 | 37.5 ± 0.8 | 48.8 ± 1.4 | – | 290 to 292 | – | – | –
COc1ccc(/C(C)=N/NC2=N/C(=C/c3ccc(Cl)cc3Cl)C(=O)S2)cc1OC [Compound 4i, 4-((E)-2,4-Dichlorobenzylidene)-2-(2-((E)-1-(3,4-dimethoxyphenyl)ethylid-ene)hydrazineyl) thiazol-5(4H)-one] | 40.5 ± 1.1 | 31.9 ± 0.8 | 40.1 ± 1.9 | – | > 300 | – | – | –
COc1ccc(/C=C2/N=C(N/N=C(\C)c3ccc(OC)c(OC)c3)SC2=O)cc1OC [Compound 4j, 4-((E)-3,4-Dimethoxybenzylidene)-2-(2-((E)-1-(3,4-dimethoxyphenyl)ethylid-ene)hydrazinyl)thiazol-5(4H)-one] | 22.9 ± 0.7 | 32.6 ± 0.9 | 43.3 ± 1.8 | – | 232 to 236 | – | – | –
COc1ccc(/C(C)=N/NC2=N/C(=C/c3ccc(O)cc3O)C(=O)S2)cc1OC [Compound 4k, 4-((E)-2,4-Dihydroxybenzylidene)-2-(2-((E)-1-(3,4-dimethoxyphenyl)ethylid-ene)hydrazinyl)thiazol-5(4H)-one] | 11.7 ± 0.3 | 12.2 ± 0.4 | 13.9 ± 0.5 | 0.05001 ± 0.0004 | > 300 | – | – | –
COc1ccc(/C(C)=N/NC2=N/C(=C/c3cccs3)C(=O)S2)cc1OC [Compound 5b, (E)-2-(2-((E)-1-(3,4-Dimethoxyphenyl)ethylidene)hydrazinyl)-4-(thiophen-2-ylmethylene)thiazol-5(4H)-one] | 18.4 ± 0.2 | 17.5 ± 0.7 | 21.8 ± 1 | – | 208 to 210 | – | – | –
C/C(=N\NC(N)=S)c1cccs1 [Compound 7a, (E)-2-(1-(Thiophen-2-yl)ethylidene)hydrazine-1-carbothioamide] | > 50 | > 50 | > 50 | – | – | – | – | –
C/C(=N\NC(N)=S)c1ccco1 [Compound 7b, (E)-2-(1-(Furan-2-yl)ethylidene)hydrazine-1-carbothioamide] | > 50 | > 50 | > 50 | – | – | – | – | –
COc1ccc(/C=C2/N=C(N/N=C(\C)c3cccs3)SC2=O)cc1 [Compound 8a, 4-((E)-4-Methoxybenzylidene)-2-(2-((E)-1-(thiophen-2-yl)ethylidene)hydra-zinyl)thiazol-5(4H)-one] | 35.5 ± 2 | 26.6 ± 0.9 | 32.1 ± 1.2 | – | 243 to 245 | – | – | –
C/C(=N\NC1=N/C(=C/c2ccc(Cl)cc2)C(=O)S1)c1cccs1 [Compound 8b, 4-((E)-4-Chlorobenzylidene)-2-(2-((E)-1-(thiophen-2-yl)ethylidene)hydra-zinyl)thiazol-5(4H)-one] | 18.7 ± 0.6 | 19.5 ± 0.7 | 18.2 ± 0.6 | – | 252 to 254 | – | – | –
C/C(=N\NC1=N/C(=C/c2ccc(O)cc2)C(=O)S1)c1cccs1 [Compound 8c, 4-((E)-4-Hydroxybenzylidene)-2-(2-((E)-1-(thiophen-2-yl)ethylidene)hydra-zinyl)thiazol-5(4H)-one] | 17.2 ± 0.9 | 12.2 ± 0.3 | 19 ± 0.5 | – | 178 to 180 | – | – | –
C/C(=N\NC1=N/C(=C/c2ccc(Cl)cc2Cl)C(=O)S1)c1cccs1 [Compound 8d, 4-((E)-2,4-Dichlorobenzylidene)-2-(2-((E)-1-(thiophen-2-yl)ethylidene) hydrazinyl)thiazol-5(4H)-one] | 48.6 ± 1.8 | 45.3 ± 1.2 | > 50 | – | 274 to 276 | – | – | –
COc1ccc(/C=C2/N=C(N/N=C(\C)c3cccs3)SC2=O)cc1OC [Compound 8e, 4-((E)-3,4-Dimethoxybenzylidene)-2-(2-((E)-1-(thiophen-2-yl)ethylidene) hydrazinyl) thiazol-5(4H)-one] | 34.7 ± 1 | 27.8 ± 0.5 | 25.8 ± 0.6 | – | 248 to 250 | – | – | –
C/C(=N\NC1=N/C(=C/c2ccc(O)cc2O)C(=O)S1)c1cccs1 [Compound 8f, 4-((E)-2,4-Dihydroxybenzylidene)-2-(2-((E)-1-(thiophen-2-yl)ethylidene) hydrazinyl) thiazol-5(4H)-one] | 8.96 ± 0.2 | 3.23 ± 0.1 | 7.65 ± 0.2 | 0.0116 ± 0.0002 | > 300 | – | – | –
COc1ccc(/C=C2/N=C(N/N=C(\C)c3ccco3)SC2=O)cc1 [Compound 8g, 2-(2-((E)-1-(Furan-2-yl)ethylidene)hydrazinyl)-4-((E)-4-methoxybenzylid-ene)thiazol-5(4H)-one] | 6.59 ± 0.1 | 4.69 ± 0.1 | 9.29 ± 0.1 | 0.0142 ± 0.0003 | 288 to 290 | – | – | –
C/C(=N\NC1=N/C(=C/c2ccc(Cl)cc2)C(=O)S1)c1ccco1 [Compound 8h, 4-((E)-4-Chlorobenzylidene)-2-(2-((E)-1-(furan-2-yl)ethylidene)hydra-zinyl)thiazol-5(4H)-one] | 12 ± 0.3 | 10.3 ± 0.6 | 20 ± 0.4 | 0.0384 ± 0.0014 | 272 to 274 | – | – | –
C/C(=N\NC1=N/C(=C/c2ccc(Cl)cc2Cl)C(=O)S1)c1ccco1 [Compound 8j, 4-((E)-2,4-Dichlorobenzylidene)-2-(2-((E)-1-(furan-2-yl)ethylidene) hydrazinyl) thiazol-5(4H)-one] | > 50 | > 50 | > 50 | – | 264 to 266 | – | – | –
C/C(=N\NC1=N/C(=C/c2cccs2)C(=O)S1)c1ccco1 [Compound 9b, (E)-2-(2-((E)-1-(Furan-2-yl)ethylidene)hydrazinyl)-4-(thiophen-2-ylmethylene) thiazol-5(4H)-one] | > 50 | 45.1 ± 0.7 | > 50 | – | 203 to 205 | – | – | –
